Data taken from US10940201B2, “Nucleic acid derivative having immunostimulatory activity” (Shionogi & Co., Ltd., priority 2015, dated 2021).

Assays:
[1] = Subcutaneous irritation test in a single dose; assay type: in vivo, rats; conditions: for Gross: Crust / Gross: White matter accumulation / Histopathological, Subcutaneous: Cyst-like structure / Histopathological, Subcutaneous tissue: Cyst-like structure / Gross: Dark red spots / Gross: Edema / Gross: Epidermis: Crust: number of the observed animals; for Histopathological, Dermis: Inflammatory cell infiltration / Histopathological, Subcutaneous: Granulomatous inflammation / Histopathological, Subcutaneous: Inflammatory cell infiltration / Histopathological, Subcutaneous: Edema / Histopathological, Muscle layer: Edema / Histopathological, Muscle layer: Inflammatory cell infiltration / Histopathological, Muscle layer: Necrosis / Histopathological, Subcutaneous tissue: Bleeding / Histopathological, Subcutaneous tissue: Edema / Histopathological, Subcutaneous tissue: Inflammatory cell infiltration / Histopathological, Subcutaneous tissue: Necrosis / Histopathological, Subcutaneous: Necrosis: total score of grades
Description: Subcutaneous irritation of a compound of the present invention was evaluated by gross examination and histopathological examination about the skin at necropsy one day, one and four week(s) after subcutaneous administration in a single dose.
The compound of the present invention was subcutaneously administered to the center of back between the shoulder blades of rats. At necropsy one day, one or four week(s) after administration (isoflurane anesthesia, euthanasia by bleeding), skin at the administration site was collected, grossly observed and fixed in 10% neutral buffered formalin solution. The fixed skin was cut out, embedded and put in a thin slice by the usual methods, and Hematoxylin-eosin (HE) stained sections were made. The pathological observers were observed the HE stained sections by an optical microscope, and recorded the histopathological findings. The changes in pathological findings were evaluated in four grades of Minimal; ±, Mild; +, Moderate; 2+ and Marked; 3+. When any grade was not appropriate for the finding, it was recorded as Positive.
SEQ-2, SEQ-49 or an adjuvant of the present invention was dissolved in phosphate buffered saline and administered at 4.71, 15.7 or 47.1 nmol/1 mL/site, respectively.

[2] = tested on: B16F10 cells; test: Anti-tumor effect of TRP2 peptide vaccine using an adjuvant; assay type: in vivo, mouse
Description: After immunization by TRP2 peptide vaccine, B16F10 cells (ATTC) which is mouse melanoma expressing TRP2 protein was subcutaneously transplanted to evaluate anti-tumor effect. […] The major and minor axes of the engrafted tumor were measured every 2 to 3 days, and the tumor volume was calculated by the formula: (major axis×minor axis^2)/2 Calculation method for indicators of anti-tumor effect For the adjuvant comprising ODN1826 100·(average tumor volume of adjuvant group)/(average tumor volume of ODN1826 group) For the adjuvant comprising ODN2006 100·(average tumor volume of adjuvant group)/(average tumor volume of ODN2006 group)

[3] = four weeks after administration, 4.71 nmol/site
[4] = four weeks after administration, 15.7 nmol/site
[5] = four weeks after administration, 47.1 nmol/site
[6] = one day after administration, 4.71 nmol/site
[7] = one day after administration, 15.7 nmol/site
[8] = one day after administration, 47.1 nmol/site
[9] = one week after administration, 4.71 nmol/site
[10] = one week after administration, 15.7 nmol/site
[11] = one week after administration, 47.1 nmol/site

With Amph1826 [SEQ-2] the “Number of deaths/imminent dissections” value [1, 3] was 0/0, the “Gross: Crust” value [1, 3] was 0 and the “Gross: White matter accumulation” value [1, 3] was 0. For the same substance, the “Histopathological, Subcutaneous: Cyst-like structure” value [1, 3] was 0, the “Histopathological, Dermis: Inflammatory cell infiltration” value (shortened to “Histopathological, Dermis”) [1, 3] was 0 and the “Histopathological, Subcutaneous: Granulomatous inflammation” value [1, 3] was 4. For the same substance, the “Histopathological, Subcutaneous: Inflammatory cell infiltration” value [1, 3] was 0, the “Number of deaths/imminent dissections” value [1, 4] was 0/0 and the “Gross: Crust” value [1, 4] was 0. The “Gross: White matter accumulation” value [1, 4] was 0, the “Histopathological, Subcutaneous: Cyst-like structure” value [1, 4] was 0 and the “Histopathological, Dermis” value [1, 4] was 4. The “Histopathological, Subcutaneous: Edema” value [1, 4] was 0, the “Histopathological, Subcutaneous: Granulomatous inflammation” value [1, 4] was 5 and the “Histopathological, Subcutaneous: Inflammatory cell infiltration” value [1, 4] was 0. For the same substance, the “Number of deaths/imminent dissections” value [1, 5] was 0/0, the “Gross: Crust” value [1, 5] was 0 and the “Gross: White matter accumulation” value [1, 5] was 0. For the same substance, the “Histopathological, Subcutaneous: Cyst-like structure” value [1, 5] was 0, the “Histopathological, Dermis” value [1, 5] was 7 and the “Histopathological, Subcutaneous: Edema” value [1, 5] was 0. For the same substance, the “Histopathological, Subcutaneous: Granulomatous inflammation” value [1, 5] was 7, the “Histopathological, Subcutaneous: Inflammatory cell infiltration” value [1, 5] was 0 and the “Number of deaths/imminent dissections” value [1, 6] was 0/0. For the same substance, the “Histopathological, Subcutaneous tissue: Cyst-like structure” value [1, 6] was 1, the “Histopathological, Dermis” value [1, 6] was 5 and the “Histopathological, Muscle layer: Edema” value [1, 6] was 1. For the same substance, the “Histopathological, Muscle layer: Inflammatory cell infiltration” value [1, 6] was 4, the “Histopathological, Muscle layer: Necrosis” value [1, 6] was 0 and the “Histopathological, Subcutaneous tissue: Bleeding” value (“Histopathological … Bleeding” for short) [1, 6] was 0. The “Histopathological, Subcutaneous tissue: Edema” value [1, 6] was 3, the “Histopathological, Subcutaneous tissue: Inflammatory cell infiltration” value [1, 6] was 7 and the “Histopathological, Subcutaneous tissue: Necrosis” value [1, 6] was 1. The “Number of deaths/imminent dissections” value [1, 7] was 0/0, the “Histopathological, Subcutaneous tissue: Cyst-like structure” value [1, 7] was 2 and the “Histopathological, Dermis” value [1, 7] was 9. The “Histopathological, Muscle layer: Edema” value [1, 7] was 3, the “Histopathological, Muscle layer: Inflammatory cell infiltration” value [1, 7] was 7 and the “Histopathological, Muscle layer: Necrosis” value [1, 7] was 0. The “Histopathological … Bleeding” value [1, 7] was 3, the “Histopathological, Subcutaneous tissue: Edema” value [1, 7] was 5 and the “Histopathological, Subcutaneous tissue: Inflammatory cell infiltration” value [1, 7] was 6. For the same substance, the “Histopathological, Subcutaneous tissue: Necrosis” value [1, 7] was 1, the “Number of deaths/imminent dissections” value [1, 8] was 0/0 and the “Histopathological, Subcutaneous tissue: Cyst-like structure” value [1, 8] was 1. For the same substance, the “Histopathological, Dermis” value [1, 8] was 6, the “Histopathological, Muscle layer: Edema” value [1, 8] was 4 and the “Histopathological, Muscle layer: Inflammatory cell infiltration” value [1, 8] was 6. For the same substance, the “Histopathological, Muscle layer: Necrosis” value [1, 8] was 0, the “Histopathological … Bleeding” value [1, 8] was 3 and the “Histopathological, Subcutaneous tissue: Edema” value [1, 8] was 6. The “Histopathological, Subcutaneous tissue: Inflammatory cell infiltration” value [1, 8] was 6, the “Histopathological, Subcutaneous tissue: Necrosis” value [1, 8] was 1 and the “Number of deaths/imminent dissections” value [1, 9] was 0/0. For the same substance, the “Gross: Dark red spots” value [1, 9] was 0, the “Gross: Edema” value [1, 9] was 0 and the “Gross: Epidermis: Crust” value [1, 9] was 0. For the same substance, the “Gross: White matter accumulation” value [1, 9] was 0, the “Histopathological, Subcutaneous: Cyst-like structure” value [1, 9] was 1 and the “Histopathological, Dermis” value [1, 9] was 4. For the same substance, the “Histopathological, Muscle layer: Inflammatory cell infiltration” value [1, 9] was 0, the “Histopathological, Subcutaneous: Edema” value [1, 9] was 3 and the “Histopathological, Subcutaneous: Granulomatous inflammation” value [1, 9] was 0. The “Histopathological, Subcutaneous: Necrosis” value [1, 9] was 0, the “Number of deaths/imminent dissections” value [1, 10] was 0/0 and the “Gross: Dark red spots” value [1, 10] was 0. The “Gross: Edema” value [1, 10] was 1, the “Gross: Epidermis: Crust” value [1, 10] was 0 and the “Gross: White matter accumulation” value [1, 10] was 0. For the same substance, the “Histopathological, Subcutaneous: Cyst-like structure” value [1, 10] was 1, the “Histopathological, Dermis” value [1, 10] was 6 and the “Histopathological, Muscle layer: Inflammatory cell infiltration” value [1, 10] was 4. For the same substance, the “Histopathological, Subcutaneous: Edema” value [1, 10] was 4, the “Histopathological, Subcutaneous: Granulomatous inflammation” value [1, 10] was 0 and the “Histopathological, Subcutaneous: Inflammatory cell infiltration” value [1, 10] was 8. For the same substance, the “Histopathological, Subcutaneous: Necrosis” value [1, 10] was 0, the “Number of deaths/imminent dissections” value [1, 11] was 0/0 and the “Gross: Dark red spots” value [1, 11] was 0. For the same substance, the “Gross: Edema” value [1, 11] was 1, the “Gross: Epidermis: Crust” value [1, 11] was 0 and the “Gross: White matter accumulation” value [1, 11] was 0. The “Histopathological, Subcutaneous: Cyst-like structure” value [1, 11] was 3, the “Histopathological, Dermis” value [1, 11] was 9 and the “Histopathological, Muscle layer: Inflammatory cell infiltration” value [1, 11] was 6. For the same substance, the “Histopathological, Subcutaneous: Edema” value [1, 11] was 3, the “Histopathological, Subcutaneous: Granulomatous inflammation” value [1, 11] was 0 and the “Histopathological, Subcutaneous: Inflammatory cell infiltration” value [1, 11] was 8. The “Histopathological, Subcutaneous: Necrosis” value [1, 11] was 0, the “subcutaneous irritation findings four weeks after administration” value ([1]; rats, single subcutaneous dose, four weeks) was “skin inflammation was not recovered, and granulomatous inflammation by continuous activation of monocyte/macrophage system was observed” and the “subcutaneous irritation findings one day after administration” value ([1]; rats, single subcutaneous dose, one day) was “inflammation cellular infiltration, edema and crust were observed”. The “subcutaneous irritation findings one week after administration” value ([1]; rats, single subcutaneous dose, one week) was “inflammation cellular infiltration, edema and crust were observed”, the “tumor inhibition rate compared to ODN1826” value ([2]; Day 12 after transplantation, Result 4-B, FIG. 3) was “about 3.5%” and the “tumor inhibition rate compared to ODN1826” value ([2]; Day 12 after transplantation, Result 6-B, FIG. 4) was 64.3%. The “tumor inhibition rate compared to ODN1826” value ([2]; Day 14 after transplantation, Result 7-B, FIG. 5) was “about 72.6%” and the “Tumor inhibition rate (Day 14 after transplantation)” value ([2]; Table 37, 1.57 nmol/head, compared to ODN1826 (SEQ-1)) was 72.64%.
